# According to US20240368163A1, “COMPOUNDS AND METHODS FOR MODULATING SPLICING” (REMIX THERAPEUTICS INC., priority 2021, published 2024):
# Columns and labels:
# Assay type in all cases: cell-based, human
# [1] = test system: SMN2; assay: Splicing RT-qPCR panel, SMN2 canonical junction (CJ) mRNA; settings: Homo sapiens, gene panel, CJ qPCR, protocol of Example 142; read-out: SMN2 IC50 (decrease in CJ mRNA levels)
# How it was run: (§1)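 Splicing switch read by one-step RT-qPCR of canonical and alternative exon junctions, housekeeper-normalized (GAPDH/GUSB/PPIA), 2^(−ΔΔCt) vs DMSO as percent response. Cells (A673 or K562) dosed 24 h, 11 points 3-fold from 10 uM, DMSO ≤0.25%.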
# [2] = test system: MYB; assay: Splicing RT-qPCR assay, MYB mRNA canonical junction (CJ) and alternative junction (AJ); settings: Homo sapiens, gene panel, CJ qPCR, protocol of Example 142; read-out: MYB IC50 (decrease in CJ mRNA levels)
# How it was run: as §1
# [3] = test system: HTT; assay: HiBiT protein abundance assay, HTT; settings: Homo sapiens, K562, 24 h, Table 13B, modified K562 cells
# How it was run: (§2)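 Protein abundance measured by Nano-Glo HiBiT lytic luminescence after 24 h compound exposure of modified K562 lines, 10000 cells/well, top final dose 10 μM in 3-fold steps. Four-parameter fit of control-normalised response gives concentration reducing abundance to 50% of untreated.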
# [4] = test system: MYB; assay: HiBiT protein abundance assay, MYB; settings: Homo sapiens, K562, 24 h, Table 13B, modified K562 cells
# How it was run: as §2
# [5] = test system: Target C; assay: HiBiT protein abundance assay, Target C; settings: Homo sapiens, K562, 24 h, Table 13B, modified K562 cells
# How it was run: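 Target protein levels in engineered HiBiT-tagged cells were read by lytic luminescence after 24 h compound exposure (10000 cells/well, 10 μM top final, 3-fold steps, ≤0.25% DMSO). Unmodified K562 served as baseline; four-parameter regression gave concentration reducing abundance to 50%.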
# [6] = test system: HTT; assay: Splicing RT-qPCR assay, HTT mRNA canonical junction (CJ) and alternative junction (AJ); settings: Homo sapiens, gene panel, CJ qPCR, protocol of Example 142; read-out: HTT IC50 (decrease in CJ mRNA levels)
# How it was run: as §1
# [7] = test system: Target C; assay: Splicing RT-qPCR panel, Target C canonical junction (CJ) mRNA; settings: Homo sapiens, gene panel, CJ qPCR, protocol of Example 142; read-out: Target C IC50 (decrease in CJ mRNA levels)
# How it was run: as §1
SMILES,IC50 [1],IC50 [2],IC50 [3],IC50 [4],IC50 [5],IC50 [6],IC50 [7]
CC(C)Oc1nc(-c2ccc(N(C)[C@@H]3C[C@H]4CC[C@@H](C3)N4)nn2)ccc1-c1cn[nH]c1 [Compound 937],< 100 nM,100 to 1000 nM,100 to 1000 nM,100 to 1000 nM,1000 to 10000 nM,100 to 1000 nM,1000 to 10000 nM
CN(C)c1nc(-c2ccc(N(C)[C@@H]3C[C@H]4CC[C@@H](C3)N4)nn2)ccc1-c1cn[nH]c1 [Compound 938],1000 to 10000 nM,> 10000 nM,1000 to 10000 nM,1000 to 10000 nM,1000 to 10000 nM,1000 to 10000 nM,1000 to 10000 nM
COc1nc(-c2ccc(NC3CCNCC3)nn2)ccc1-n1cccn1 [Compound 941],1000 to 10000 nM,> 10000 nM,> 10000 nM,> 10000 nM,> 10000 nM,> 10000 nM,> 10000 nM
COc1nc(-c2ccc(N[C@@H]3C[C@H]4CC[C@@H](C3)N4)nn2)ccc1-c1cnn(C)n1 [Compound 942],< 100 nM,> 10000 nM,< 100 nM,100 to 1000 nM,100 to 1000 nM,1000 to 10000 nM,1000 to 10000 nM
COc1nc(-c2ccc(O[C@@H]3C[C@H]4CC[C@@H](C3)N4)nn2)ccc1-c1cn(C)nn1 [Compound 943],> 10000 nM,> 10000 nM,1000 to 10000 nM,1000 to 10000 nM,> 10000 nM,1000 to 10000 nM,> 10000 nM
COc1nc(-c2ccc(N[C@@H]3C[C@H]4CC[C@@H](C3)N4)nn2)ccc1-c1cn(C)nn1 [Compound 944],100 to 1000 nM,1000 to 10000 nM,1000 to 10000 nM,100 to 1000 nM,1000 to 10000 nM,100 to 1000 nM,1000 to 10000 nM
COc1nc(-c2ccc(N(C)[C@@H]3C[C@H]4CC[C@@H](C3)N4)nn2)ccc1-c1cn(C)nn1 [Compound 945],< 100 nM,1000 to 10000 nM,100 to 1000 nM,100 to 1000 nM,100 to 1000 nM,100 to 1000 nM,1000 to 10000 nM
COc1nc(-c2ccc(OC3CC(C)(C)NC(C)(C)C3)nn2)ccc1-c1cn(C)nn1 [Compound 946],100 to 1000 nM,1000 to 10000 nM,1000 to 10000 nM,1000 to 10000 nM,> 10000 nM,1000 to 10000 nM,> 10000 nM
COc1nc(-c2ccc(N[C@@H]3C[C@H]4CC[C@@H](C3)N4)nn2)ccc1-n1cccn1 [Compound 948],100 to 1000 nM,1000 to 10000 nM,100 to 1000 nM,100 to 1000 nM,100 to 1000 nM,100 to 1000 nM,1000 to 10000 nM
COc1nc(-c2ccc(OC3CC4CCC(C3)N4)nn2)ccc1-n1cccn1 (centres unmarked) [Compound 949],1000 to 10000 nM,> 10000 nM,1000 to 10000 nM,1000 to 10000 nM,1000 to 10000 nM,1000 to 10000 nM,> 10000 nM
COc1nc(-c2ccc(N(C)[C@@H]3C[C@H]4CC[C@@H](C3)N4)nn2)ccc1-c1cnc(C)cn1 [Compound 950],< 100 nM,100 to 1000 nM,100 to 1000 nM,100 to 1000 nM,100 to 1000 nM,100 to 1000 nM,1000 to 10000 nM
COc1cnc(-c2ccc(-c3ccc(N(C)[C@@H]4C[C@H]5CC[C@@H](C4)N5)nn3)nc2OC)cn1 [Compound 951],100 to 1000 nM,100 to 1000 nM,< 100 nM,100 to 1000 nM,100 to 1000 nM,100 to 1000 nM,100 to 1000 nM
COc1nc(-c2ccc(N3CCC(NC(C)(C)C)C3)nn2)ccc1-n1cccn1 (centres unmarked) [Compound 957],1000 to 10000 nM,1000 to 10000 nM,1000 to 10000 nM,1000 to 10000 nM,1000 to 10000 nM,1000 to 10000 nM,1000 to 10000 nM
COc1nc(-c2ccc(N3CCC(NC4CC4)C3)nn2)ccc1-n1cccn1 (centres unmarked) [Compound 958],1000 to 10000 nM,> 10000 nM,> 10000 nM,> 10000 nM,> 10000 nM,> 10000 nM,> 10000 nM
COc1cc(-c2ccc(-c3ccc(N(C)[C@@H]4C[C@H]5CC[C@@H](C4)N5)nn3)nc2OC)cnn1 [Compound 959],< 100 nM,100 to 1000 nM,< 100 nM,100 to 1000 nM,100 to 1000 nM,< 100 nM,100 to 1000 nM
COc1nc(-c2ccc(N(C)[C@@H]3C[C@H]4CC[C@@H](C3)N4)nn2)ccc1-c1cnnc(C)c1 [Compound 960],100 to 1000 nM,1000 to 10000 nM,1000 to 10000 nM,1000 to 10000 nM,> 10000 nM,1000 to 10000 nM,1000 to 10000 nM
COc1nc(-c2ccc(O[C@@H]3C[C@H]4CC[C@@H](C3)N4)nn2)ccc1-c1ccnc(C)c1 [Compound 963],1000 to 10000 nM,1000 to 10000 nM,1000 to 10000 nM,1000 to 10000 nM,> 10000 nM,1000 to 10000 nM,> 10000 nM
COc1nc(-c2ccc(OC3CC4CC(F)(F)C(C3)N4)nn2)ccc1-c1ccnc(C)c1 (centres unmarked) [Compound 964],> 10000 nM,> 10000 nM,> 10000 nM,> 10000 nM,> 10000 nM,> 10000 nM,> 10000 nM
CC1(C)CC(Oc2ccc(-c3ccc(-c4cn[nH]c4)c(OC4CC4)n3)nn2)CC(C)(C)N1 [Compound 968],100 to 1000 nM,1000 to 10000 nM,100 to 1000 nM,1000 to 10000 nM,1000 to 10000 nM,100 to 1000 nM,1000 to 10000 nM
CCOc1nc(-c2ccc(OC3CC4CC(F)(F)C(C3)N4)nn2)ccc1-c1cn[nH]c1 (centres unmarked) [Compound 970],1000 to 10000 nM,> 10000 nM,> 10000 nM,> 10000 nM,> 10000 nM,> 10000 nM,> 10000 nM
COc1nc(-c2ccc(OC3CC4CC(F)(F)C(C3)N4)nn2)ccc1C1C=CC(F)=C1 (centres unmarked) [Compound 971],1000 to 10000 nM,1000 to 10000 nM,1000 to 10000 nM,1000 to 10000 nM,1000 to 10000 nM,1000 to 10000 nM,1000 to 10000 nM
COc1cc(-c2ccc(N3CCC(NC(C)(C)C)C3)nn2)ncc1-n1cccn1 (centres unmarked) [Compound 972],100 to 1000 nM,1000 to 10000 nM,100 to 1000 nM,1000 to 10000 nM,1000 to 10000 nM,100 to 1000 nM,1000 to 10000 nM
COc1nc(-c2ccc(N(C)[C@@H]3C[C@H]4CC[C@@H](C3)N4)cn2)ccc1-c1cn[nH]c1 [Compound 978],> 10000 nM,> 10000 nM,1000 to 10000 nM,1000 to 10000 nM,> 10000 nM,> 10000 nM,> 10000 nM
